Data as given in the NIST ThermoML archive (doi:10.1016/j.jct.2006.12.012).
Numbers after ± are expanded uncertainties.

Test: xn = mol fraction of the nth substance listed
Details: 101 kPa, Liquid

C[S+](C)[O-] [dimethyl sulfoxide] + O
Details | mass density, 298.15 K [kg/m3] | mass density, 303.15 K [kg/m3] | mass density, 308.15 K [kg/m3] | mass density, 313.15 K [kg/m3] | mass density, 318.15 K [kg/m3] | viscosity, 298.15 K [mPa·s] | viscosity, 303.15 K [mPa·s] | viscosity, 308.15 K [mPa·s] | viscosity, 313.15 K [mPa·s] | viscosity, 318.15 K [mPa·s]
x1 = 0.0238 | 1009.5 ± 0.16 | 1007.8 ± 0.16 | 1005.89 ± 0.16 | 1003.79 ± 0.16 | 1001.51 ± 0.16 | 1.033 ± 0.014 | 0.9386 ± 0.012 | 0.8541 ± 0.011 | 0.7751 ± 0.01 | 0.6982 ± 0.0095
x1 = 0.0489 | 1021.56 ± 0.18 | 1019.59 ± 0.18 | 1017.38 ± 0.17 | 1015.03 ± 0.17 | 1012.48 ± 0.17 | 1.258 ± 0.016 | 1.148 ± 0.015 | 1.041 ± 0.013 | 0.9371 ± 0.012 | 0.8322 ± 0.011
x1 = 0.0796 | 1034.64 ± 0.2 | 1032.3 ± 0.19 | 1029.76 ± 0.19 | 1027.04 ± 0.19 | 1024.2 ± 0.19 | 1.597 ± 0.02 | 1.454 ± 0.018 | 1.309 ± 0.017 | 1.165 ± 0.015 | 1.02 ± 0.014
x1 = 0.1183 | 1048.91 ± 0.21 | 1046.26 ± 0.21 | 1043.35 ± 0.21 | 1040.22 ± 0.21 | 1036.98 ± 0.2 | 2.067 ± 0.025 | 1.872 ± 0.023 | 1.671 ± 0.021 | 1.471 ± 0.019 | 1.269 ± 0.017
x1 = 0.1587 | 1061.32 ± 0.23 | 1058.32 ± 0.23 | 1055.11 ± 0.22 | 1051.58 ± 0.22 | 1047.91 ± 0.22 | 2.549 ± 0.03 | 2.295 ± 0.028 | 2.036 ± 0.026 | 1.778 ± 0.023 | 1.519 ± 0.021
x1 = 0.2036 | 1072.5 ± 0.25 | 1069.04 ± 0.24 | 1065.5 ± 0.24 | 1061.82 ± 0.23 | 1057.83 ± 0.23 | 3.017 ± 0.036 | 2.704 ± 0.033 | 2.389 ± 0.03 | 2.075 ± 0.027 | 1.761 ± 0.024
x1 = 0.2379 | 1079.21 ± 0.26 | 1075.61 ± 0.25 | 1071.77 ± 0.25 | 1067.99 ± 0.24 | 1063.81 ± 0.24 | 3.301 ± 0.039 | 2.954 ± 0.036 | 2.604 ± 0.033 | 2.258 ± 0.029 | 1.911 ± 0.026
x1 = 0.2768 | 1085.26 ± 0.27 | 1081.43 ± 0.26 | 1077.51 ± 0.25 | 1073.27 ± 0.25 | 1069.16 ± 0.24 | 3.537 ± 0.042 | 3.162 ± 0.038 | 2.786 ± 0.035 | 2.413 ± 0.031 | 2.04 ± 0.028
x1 = 0.3074 | 1088.96 ± 0.27 | 1085.02 ± 0.26 | 1080.99 ± 0.26 | 1076.81 ± 0.25 | 1072.4 ± 0.25 | 3.656 ± 0.043 | 3.269 ± 0.04 | 2.881 ± 0.036 | 2.496 ± 0.032 | 2.11 ± 0.029
x1 = 0.3335 | 1091.44 ± 0.27 | 1087.45 ± 0.27 | 1083.41 ± 0.26 | 1079.21 ± 0.26 | 1074.68 ± 0.25 | 3.714 ± 0.044 | 3.322 ± 0.04 | 2.93 ± 0.036 | 2.54 ± 0.033 | 2.149 ± 0.029
x1 = 0.3638 | 1093.61 ± 0.28 | 1089.68 ± 0.27 | 1085.47 ± 0.26 | 1081.11 ± 0.26 | 1076.63 ± 0.25 | 3.735 ± 0.044 | 3.344 ± 0.04 | 2.953 ± 0.037 | 2.562 ± 0.033 | 2.172 ± 0.029
x1 = 0.3906 | 1095.11 ± 0.28 | 1091.09 ± 0.27 | 1086.84 ± 0.27 | 1082.43 ± 0.26 | 1077.78 ± 0.25 | 3.717 ± 0.044 | 3.331 ± 0.04 | 2.946 ± 0.036 | 2.56 ± 0.033 | 2.175 ± 0.029
x1 = 0.4412 | 1097.04 ± 0.28 | 1092.88 ± 0.28 | 1088.48 ± 0.27 | 1084.05 ± 0.26 | 1079.52 ± 0.26 | 3.606 ± 0.042 | 3.241 ± 0.039 | 2.876 ± 0.036 | 2.508 ± 0.032 | 2.142 ± 0.029
x1 = 0.5193 | 1098.34 ± 0.28 | 1094.01 ± 0.28 | 1089.48 ± 0.27 | 1085.1 ± 0.26 | 1080.42 ± 0.26 | 3.312 ± 0.039 | 2.992 ± 0.036 | 2.671 ± 0.033 | 2.348 ± 0.03 | 2.025 ± 0.027
x1 = 0.5677 | 1098.66 ± 0.28 | 1094.24 ± 0.28 | 1089.61 ± 0.27 | 1085.12 ± 0.26 | 1080.33 ± 0.26 | 3.102 ± 0.037 | 2.81 ± 0.034 | 2.519 ± 0.031 | 2.227 ± 0.028 | 1.934 ± 0.025
x1 = 0.6195 | 1098.86 ± 0.29 | 1094.29 ± 0.28 | 1089.61 ± 0.27 | 1085.01 ± 0.26 | 1080.01 ± 0.26 | 2.883 ± 0.034 | 2.62 ± 0.031 | 2.355 ± 0.029 | 2.097 ± 0.026 | 1.835 ± 0.024
x1 = 0.6813 | 1098.85 ± 0.29 | 1094.13 ± 0.28 | 1089.3 ± 0.27 | 1084.66 ± 0.26 | 1079.61 ± 0.26 | 2.656 ± 0.032 | 2.421 ± 0.029 | 2.183 ± 0.027 | 1.958 ± 0.024 | 1.727 ± 0.022
x1 = 0.7595 | 1098.49 ± 0.29 | 1093.75 ± 0.28 | 1088.81 ± 0.27 | 1083.92 ± 0.26 | 1078.92 ± 0.26 | 2.432 ± 0.029 | 2.225 ± 0.027 | 2.009 ± 0.025 | 1.818 ± 0.023 | 1.616 ± 0.021
x1 = 0.8095 | 1098.02 ± 0.29 | 1093.29 ± 0.28 | 1088.4 ± 0.27 | 1083.63 ± 0.26 | 1078.58 ± 0.26 | 2.32 ± 0.028 | 2.129 ± 0.026 | 1.926 ± 0.024 | 1.749 ± 0.022 | 1.559 ± 0.02
x1 = 0.8856 | 1097.3 ± 0.28 | 1092.53 ± 0.28 | 1087.58 ± 0.27 | 1082.75 ± 0.26 | 1077.68 ± 0.25 | 2.175 ± 0.026 | 2.006 ± 0.024 | 1.818 ± 0.022 | 1.659 ± 0.021 | 1.486 ± 0.019
x1 = 0.9407 | 1096.83 ± 0.28 | 1091.95 ± 0.28 | 1086.95 ± 0.27 | 1082.04 ± 0.26 | 1076.93 ± 0.25 | 2.08 ± 0.025 | 1.92 ± 0.023 | 1.746 ± 0.021 | 1.599 ± 0.02 | 1.438 ± 0.018
x1 = 0.9781 | 1096.41 ± 0.28 | 1091.56 ± 0.28 | 1086.54 ± 0.27 | 1081.71 ± 0.26 | 1076.53 ± 0.25 | 2.024 ± 0.024 | 1.863 ± 0.023 | 1.697 ± 0.021 | 1.558 ± 0.019 | 1.409 ± 0.018
x1 = 1 | 1096.29 ± 0.28 | 1091.44 ± 0.28 | 1086.41 ± 0.27 | 1081.59 ± 0.26 | 1076.46 ± 0.25 | 1.996 ± 0.024 | 1.836 ± 0.022 | 1.669 ± 0.02 | 1.535 ± 0.019 | 1.393 ± 0.017
